From ChEMBL document CHEMBL4373724, “An overview of recent progress in siderophore-antibiotic conjugates” (2019)
Converted amounts (≈) assume the structure as drawn.

Key:
Format in all cases: functional
Enterococcus faecium = test: Antimicrobial activity against Enterococcus faecium NCTC after 18 hrs by CLSI protocol based broth microdilution method
Staphylococcus aureus = test: Antimicrobial activity against Staphylococcus aureus SG 511 after 18 hrs by CLSI protocol based broth microdilution method; conditions: SG 511, 18 h
Klebsiella pneumoniae [1] = test: Antimicrobial activity against Klebsiella pneumoniae 700603 after 18 hrs by CLSI protocol based broth microdilution method; conditions: Klebsiella pneumoniae, 700603, 18 h
Acinetobacter baumannii = test: Antimicrobial activity against Acinetobacter baumannii ATCC 17961 after 18 hrs by CLSI protocol based broth microdilution method; conditions: ATCC 17961, 18 h
Pseudomonas aeruginosa [2] = test: Antimicrobial activity against Pseudomonas aeruginosa ATCC 27853 after 18 hrs by CLSI protocol based broth microdilution method; conditions: ATCC 27853, 18 h
Klebsiella aerogenes = test: Antimicrobial activity against Enterobacter aerogenes ATCC 35029 after 18 hrs by CLSI protocol based broth microdilution method; conditions: ATCC 35029, 18 h
Escherichia coli [3] = test: Antimicrobial activity against Escherichia coli ATCC 25922 after 18 hrs by CLSI protocol based broth microdilution method; conditions: ATCC 25922, 18 h
Pseudomonas aeruginosa [4] = test: Antimicrobial activity against Pseudomonas aeruginosa under iron-sufficient condition by CLSI protocol based broth microdilution method
Pseudomonas aeruginosa [5] = test: Antimicrobial activity against Pseudomonas aeruginosa under iron-deficient condition by CLSI protocol based broth microdilution method
Pseudomonas aeruginosa [6] = test: Antimicrobial activity against Pseudomonas aeruginosa KW799 under iron-sufficient condition by CLSI protocol based broth microdilution method
Pseudomonas aeruginosa [7] = test: Antimicrobial activity against Pseudomonas aeruginosa KW799 under iron-deficient condition by CLSI protocol based broth microdilution method
Pseudomonas aeruginosa [8] = test: Antimicrobial activity against Pseudomonas aeruginosa 61 under iron-sufficient condition by CLSI protocol based broth microdilution method
Pseudomonas aeruginosa [9] = test: Antimicrobial activity against Pseudomonas aeruginosa 61 under iron-deficient condition by CLSI protocol based broth microdilution method
Pseudomonas aeruginosa [10] = test: Antimicrobial activity against Pseudomonas aeruginosa PAO1 under iron-sufficient condition by CLSI protocol based broth microdilution method
Pseudomonas aeruginosa [11] = test: Antimicrobial activity against Pseudomonas aeruginosa PAO1 under iron-deficient condition by CLSI protocol based broth microdilution method
Pseudomonas aeruginosa [12] = test: Antimicrobial activity against Pseudomonas aeruginosa PA4 under iron-sufficient condition by CLSI protocol based broth microdilution method
Pseudomonas aeruginosa [13] = test: Antimicrobial activity against Pseudomonas aeruginosa PA4 under iron-deficient condition by CLSI protocol based broth microdilution method
Pseudomonas aeruginosa [14] = test: Antimicrobial activity against Pseudomonas aeruginosa PA6 under iron-sufficient condition by CLSI protocol based broth microdilution method
Pseudomonas aeruginosa [15] = test: Antimicrobial activity against Pseudomonas aeruginosa PA6 under iron-deficient condition by CLSI protocol based broth microdilution method
Escherichia coli [16] = test: Antimicrobial activity against Escherichia coli ATCC 25922 under iron-sufficient condition by CLSI protocol based broth microdilution method
Escherichia coli [17] = test: Antimicrobial activity against Escherichia coli ATCC 25922 under iron-deficient condition by CLSI protocol based broth microdilution method
Klebsiella pneumoniae [18] = test: Antimicrobial activity against Klebsiella pneumoniae ATCC 8303 under iron-sufficient condition by CLSI protocol based broth microdilution method
Klebsiella pneumoniae [19] = test: Antimicrobial activity against Klebsiella pneumoniae X68 under iron-sufficient condition by CLSI protocol based broth microdilution method
Klebsiella pneumoniae [20] = test: Antimicrobial activity against Klebsiella pneumoniae ATCC 8303 under iron-deficient condition by CLSI protocol based broth microdilution method
Klebsiella pneumoniae [21] = test: Antimicrobial activity against Klebsiella pneumoniae X68 under iron-deficient condition by CLSI protocol based broth microdilution method

SMILES | MIC (Enterococcus faecium) [µM] | MIC (Staphylococcus aureus) [µM] | MIC (Klebsiella pneumoniae [1]) [µM] | MIC (Acinetobacter baumannii) [µM] | MIC (Pseudomonas aeruginosa [2]) [µM] | MIC (Klebsiella aerogenes) [µM] | MIC (Escherichia coli [3]) [µM] | MIC90 (Pseudomonas aeruginosa [4]) [µM] | MIC90 (Pseudomonas aeruginosa [5]) [µM] | MIC90 (Pseudomonas aeruginosa [6]) [µM] | MIC90 (Pseudomonas aeruginosa [7]) [µM] | MIC90 (Pseudomonas aeruginosa [8]) [µM] | MIC90 (Pseudomonas aeruginosa [9]) [µM] | MIC90 (Pseudomonas aeruginosa [10]) [µM] | MIC90 (Pseudomonas aeruginosa [11]) [µM] | MIC90 (Pseudomonas aeruginosa [12]) [µM] | MIC90 (Pseudomonas aeruginosa [13]) [µM] | MIC90 (Pseudomonas aeruginosa [14]) [µM] | MIC90 (Pseudomonas aeruginosa [15]) [µM] | MIC90 (Escherichia coli [16]) [µM] | also measured
O=C(O)c1cn(C2CC2)c2cc(N3CCN(C(=O)CCC(=O)N(O)CCCCCO)CC3)c(F)cc2c1=O | > 128 | 32 (≈ 17 µg/mL) | 16 (≈ 8.52 µg/mL) | 16 (≈ 8.52 µg/mL) | 128 (≈ 68.2 µg/mL) | 4 (≈ 2.13 µg/mL) | 2 (≈ 1.07 µg/mL) | – | – | – | – | – | – | – | – | – | – | – | – | – | –
O=C(CCC(=O)N(O)CCCCCO)NCCCCCN(O)C(=O)CCC(=O)N1CCN(c2cc3c(cc2F)c(=O)c(C(=O)O)cn3C2CC2)CC1 | > 128 | 64 (≈ 46.9 µg/mL) | 128 (≈ 93.8 µg/mL) | 64 (≈ 46.9 µg/mL) | 64 (≈ 46.9 µg/mL) | 4 (≈ 2.93 µg/mL) | 2 (≈ 1.47 µg/mL) | – | – | – | – | – | – | – | – | – | – | – | – | – | –
O=C(CCC(=O)N(O)CCCCCO)NCCCCCN(O)C(=O)CCC(=O)NCCCCCN(O)C(=O)CCC(=O)N[C@@H](C(=O)N[C@@H]1C(=O)N2C(C(=O)O)=C(Cl)CC[C@H]12)c1ccccc1 | > 128 | 64 (≈ 60.9 µg/mL) | > 128 | 64 (≈ 60.9 µg/mL) | > 128 | > 128 | 128 (≈ 122 µg/mL) | – | – | – | – | – | – | – | – | – | – | – | – | – | –
O=C(CCC(=O)N(O)CCCCCO)N[C@@H](C(=O)N[C@@H]1C(=O)N2C(C(=O)O)=C(Cl)CC[C@H]12)c1ccccc1 | > 128 | 16 (≈ 8.82 µg/mL) | > 128 | ≥ 128 | > 128 | > 128 | > 128 | – | – | – | – | – | – | – | – | – | – | – | – | – | –
O=C(CCC(=O)N(O)CCCCCO)NCCCCCN(O)C(=O)CCC(=O)N[C@@H](C(=O)N[C@@H]1C(=O)N2C(C(=O)O)=C(Cl)CC[C@H]12)c1ccccc1 | > 128 | 64 (≈ 48.1 µg/mL) | > 128 | 32 (≈ 24 µg/mL) | > 128 | > 128 | ≥ 128 | – | – | – | – | – | – | – | – | – | – | – | – | – | –
CC1(C)S[C@@H]2[C@H](NC(=O)[C@H](NC(=O)CCC(=O)NC(CCCNC(=O)c3cccc(O)c3O)(CCCNC(=O)c3cccc(O)c3O)CCCNC(=O)c3cccc(O)c3O)c3ccccc3)C(=O)N2[C@H]1C(=O)O | – | – | – | – | – | – | – | 33 (≈ 34.4 µg/mL) | 0.05 (≈ 0.0521 µg/mL) | 12.5 to 33 (≈ 13 to 34.4 µg/mL) | 0.05 to 0.067 (≈ 0.0521 to 0.0698 µg/mL) | 12.5 (≈ 13 µg/mL) | 0.067 (≈ 0.0698 µg/mL) | 50 (≈ 52.1 µg/mL) | 0.39 (≈ 0.406 µg/mL) | 25 (≈ 26.1 µg/mL) | 0.39 (≈ 0.406 µg/mL) | > 200 | > 200 | 150 (≈ 156 µg/mL) | MIC90 (Escherichia coli [17]): 1.56 µM (≈ 1.63 µg/mL); MIC90 (Klebsiella pneumoniae [18]): > 200 µM; MIC90 (Klebsiella pneumoniae [19]): > 200 µM; MIC90 (Klebsiella pneumoniae [20]): > 100 µM; MIC90 (Klebsiella pneumoniae [21]): > 100 µM
O=C(CCC(=O)N(O)CCCCCO)NCCCCCN(O)C(=O)CCC(=O)NCCCCCN(O)C(=O)CCC(=O)N1CCN(c2cc3c(cc2F)c(=O)c(C(=O)O)cn3C2CC2)CC1 | 64 (≈ 59.7 µg/mL) | 1 (≈ 0.933 µg/mL) | > 128 | ≥ 128 | > 128 | 64 (≈ 59.7 µg/mL) | > 128 | – | – | – | – | – | – | – | – | – | – | – | – | – | –
CC1(C)S[C@@H]2[C@H](NC(=O)[C@H](NC(=O)CCC(=O)NC(CCCNC(=O)c3cccc(O)c3O)(CCCNC(=O)c3cccc(O)c3O)CCCNC(=O)c3cccc(O)c3O)c3ccc(O)cc3)C(=O)N2[C@H]1C(=O)O | – | – | – | – | – | – | – | 25 (≈ 26.5 µg/mL) | 0.05 (≈ 0.0529 µg/mL) | 12.5 to 25 (≈ 13.2 to 26.5 µg/mL) | 0.05 to 0.083 (≈ 0.0529 to 0.0878 µg/mL) | 12.5 (≈ 13.2 µg/mL) | 0.083 (≈ 0.0878 µg/mL) | 50 (≈ 52.9 µg/mL) | 0.39 (≈ 0.413 µg/mL) | 25 (≈ 26.5 µg/mL) | 0.21 (≈ 0.222 µg/mL) | > 200 | > 200 | 100 (≈ 106 µg/mL) | MIC90 (Escherichia coli [17]): 6.25 µM (≈ 6.61 µg/mL); MIC90 (Klebsiella pneumoniae [18]): > 200 µM; MIC90 (Klebsiella pneumoniae [19]): > 200 µM; MIC90 (Klebsiella pneumoniae [20]): > 100 µM; MIC90 (Klebsiella pneumoniae [21]): > 100 µM
CC1(C)S[C@@H]2[C@H](NC(=O)[C@H](N)c3ccc(O)cc3)C(=O)N2[C@H]1C(=O)O [AMOXICILLIN] | – | – | – | – | – | – | – | > 200 | > 200 | 0.46 to 200 (≈ 0.168 to 73.1 µg/mL) | 0.39 to 200 (≈ 0.143 to 73.1 µg/mL) | 0.46 (≈ 0.168 µg/mL) | 0.39 (≈ 0.143 µg/mL) | > 200 | > 100 | > 200 | > 100 | > 200 | > 200 | 4.17 (≈ 1.52 µg/mL) | MIC90 (Escherichia coli [17]): 4.17 µM (≈ 1.52 µg/mL); MIC90 (Klebsiella pneumoniae [18]): 100 µM (≈ 36.5 µg/mL); MIC90 (Klebsiella pneumoniae [19]): 100 µM (≈ 36.5 µg/mL); MIC90 (Klebsiella pneumoniae [20]): > 100 µM; MIC90 (Klebsiella pneumoniae [21]): > 100 µM
CC1(C)S[C@@H]2[C@H](NC(=O)[C@H](N)c3ccccc3)C(=O)N2[C@H]1C(=O)O [AMPICILLIN] | – | – | – | – | – | – | – | > 200 | > 200 | 0.52 to 200 (≈ 0.182 to 69.9 µg/mL) | 0.78 to 200 (≈ 0.273 to 69.9 µg/mL) | 0.52 (≈ 0.182 µg/mL) | 0.78 (≈ 0.273 µg/mL) | > 200 | > 100 | > 200 | > 100 | > 200 | > 200 | 16.7 (≈ 5.84 µg/mL) | MIC90 (Escherichia coli [17]): 12.5 µM (≈ 4.37 µg/mL); MIC90 (Klebsiella pneumoniae [18]): > 200 µM; MIC90 (Klebsiella pneumoniae [19]): > 200 µM; MIC90 (Klebsiella pneumoniae [20]): > 100 µM; MIC90 (Klebsiella pneumoniae [21]): > 100 µM
N[C@@H](C(=O)N[C@@H]1C(=O)N2C(C(=O)O)=C(Cl)CC[C@H]12)c1ccccc1 [LORACARBEF ANHYDROUS] | 32 (≈ 11.2 µg/mL) | 1 (≈ 0.35 µg/mL) | 128 (≈ 44.8 µg/mL) | > 128 | > 128 | > 128 | 2 (≈ 0.7 µg/mL) | – | – | – | – | – | – | – | – | – | – | – | – | – | –
